Experiments:
[1] = test system: cortical primary neurons (from C57BL6/J mice); assay: Caspase-3 activity (neuronal apoptosis) after excitotoxic NMDA stimulus; format: cell-based; settings: 100 μM NMDA 10 min, then 24 h with compound 0.1, 1, 5 μM (FIG. 6)
Description: For NMDA receptors activation, neurons at 8 days in vitro were incubated with 100 μM NMDA for 10 minutes. Neurons were then washed and further incubated for 24 hours in culture medium with DMSO only (DMSO empty bar), DMSO and NMDA (DMSO filled bar) and with increasing quantities of GKK1032C, GKK1032, Pyrrocidine B, CL0661, CL0665, CL0667 and CL0670. Concentrations of 0.1 μM, 1 μM, 5 μM. *: pvalue <0.05 vs. DMSO+NMDA (student's test).
Experiments were performed in […] cortical primary neurons, obtained as was previously described (Herrero-Mendez A. et al., Nat. Cell. Biol. 11:747-752, 2009). After 7 or 8 days in B27-MAO culture, neurons (from C57BL6/J mice) were incubated in the presence of N-methyl-D-aspartate (NMDA, a H2O2 production promoter; 100 μM) for 10 minutes, followed by a PBS washing step and submitted to a 24-hour B27 incubation step in the absence (DMSO) or presence of increasing amounts of GKK1032C, GKK1032, Pyrrocidine B, Pyrrocidine A, CL0661, CL0665, CL0667 and CL0670 (0.1 μM, 1 μM and 5 μM). B27-MAO stands for Neurobasal medium, supplemented with B27 supplement in the absence of antioxidants (minus antioxidants, MAO).
Neuronal apoptosis was determined by measuring caspase-3 activity (Veas-Perez de Tudela et al. Sci Rep 5:18180; doi:10.1038/srep18180 (2015).
The data are presented as the mean values±standard deviation of the mean from n=3.

[2] = test system: SH-SY5Y human neuroblastoma cells expressing EGFP-alphasynuclein-A53T; assay: Mutated α-synuclein aggregation in transfected SH-SY5Y cells; format: cell-based; settings: 5 μM, 24 h
Description: Mutated α-synuclein protein aggregation are indicated by white arrows, GFP α-synuclein protein (green) and β-tubulin (red). The images were acquired using the Operetta CLS automated confocal microscope, using the 40× water immersion objective.
SH-SY5Y human neuroblastoma cells were maintained in Dulbecco's modified Eagle's medium (DMEM) supplemented with 10% fetal bovine serum (FBS), 2 mM L-glutamine and 100 U/mL penicillin-0.1 mg/mL streptomycin at 37° C. and 5% CO2.
To study the effect of compounds on mutated huntingtin and synuclein that accumulates in cells, SH-SY5Y were transfected with a constitutively active mutated-huntingtin expression vector pEGFP-Q74 (encoding EGFP protein fused to a fragment of huntingtin corresponding to the exon 1 with 74 CAG repeats; c.54GCA[74]; Addgene; #40262) and EGFP-alphasynuclein-A53T (Addgene; #40823).
For transfection assays, cells were seeded (30×10^3 cells/cm^2) on 96-multiwell plates (coated with poliornitine-fibronectine). Cells were transfected with 0.3 μg pEGFP-Q74 plasmid using LTX with Plus Reagent according to the manufacturer's instructions (Thermo Fisher). After 24-h, the medium was changed with a new one, and cells were treated with increasing amounts of GKK1032C and CL0670 (0.1 μM, 1 μM and 5 μM) or DMSO (control cells) for 24 h at 37° C. […]

C57BL6/J male mice [3] = assay: Rotarod test in 3-nitropropionic acid chemical model of Huntington's disease; format: in vivo; settings: group II injected with GKK1032C and CL0670, once-daily 150 mg/kg for 3 days, plus 3-nitropropionic acid 50 mg/kg twice daily; after two administrations (FIG. 15)
Description: Compound I and CL0670 injections were performed at day 1 and day 2. 3-nitropropionic acid injections were performed at days 1, 1.5, 2, 2.5, 3 and 3.5. The shown data points were obtained 2 hours after the injections. p-value<0.05 vs. control (student's test).
(§1) A chemical model of Huntington's disease was conducted to evaluate the capacity of compound I and CL0670 in protecting neurons. This is achieved by intraperitoneal injection of 3-nitropropionic acid which induces neuronal oxidative stress by inhibiting the succinate dehydrogenase enzyme.
(§2) 8-weeks old C57BL6/J male mice were divided into 4 groups.
(§3) Mice in group I (4 mice) were injected with GKK1032C and CL0670 (once-daily dose of 150 mg/kg for 3 days).
(§4) Mice in group II (5 mice) were injected with GKK1032C and CL0670 (once-daily dose of 150 mg/kg for 3 days) and with 3-nitropropionic acid (twice daily dose of 50 mg/kg for 3 days). In the case of group II, 3-nitropropionic acid was injected two hours and twelve hours after injection with GKK1032C and CL0670.
(§5) Mice in group III (5 mice) were injected with 3-nitropropionic acid (twice daily dose of 50 mg/kg for 3 days).
(§6) Mice in group IV (6 mice) were injected with vehicle only.
The mice were submitted to the rotarod test once-daily, 2 hours after the injections. […]

C57BL6/J male mice [4] = assay: Open field test in 3-nitropropionic acid chemical model of Huntington's disease; format: in vivo; settings: mice injected with GKK1032C and CL0670, once-daily 150 mg/kg (FIG. 16)
Description: GKK1032C and CL0670 injections were performed at day 1, day 2 and day 3. 3-nitropropionic acid injections were performed at days 1, 1.5, 2, 2.5, 3 and 3.5. The shown data points were obtained 4 hours after the injections. p-value<0.05 vs. control (student's test).
as §1, §2, §3, §4, §5, §6

C57BL6/J male mice [5] = assay: Rotarod test after Middle Cerebral Artery occlusion (stroke model); format: in vivo; settings: GKK1032C and CL0670 10 mg/kg intravenously (jugular vein) after 30 min occlusion; rotarod 24 hours after reanimation; untreated stroke impairment ˜75%
From the text: Middle Cerebral Artery occlusion involves temporarily or permanently restricting MCA blood flow to the cortex and striatum. The cerebral ischemic model of stroke is commonly used to assess ischemic injury in the brain. Occlusion of the middle cerebral artery (MCA) leads to a reduction of cerebral blood flow in both the striatum and the cortex. It is a highly reproducible model that results in brain damages similar to those occurring in human stroke.
Compounds GKK1032C and CL0670 were administered intravenously at a dose of 10 mg/kg. 11-week old C57BL6/J male mice were divided into 3 groups of 7 mice each: mice submitted to Middle Cerebral Artery occlusion (ischemia), mice submitted to Middle Cerebral Artery occlusion and administration of GKK1032C and CL0670.
All mice were firstly trained in the rotarod for 3 consecutive days. After this period, the mice were put to sleep with sevoflurane and submitted to surgery. Occlusion was performed by maintain the surgical filament occluding the middle cerebral artery for 30 minutes. Once removed, GKK1032C and CL0670 were injected at the jugular vein. 24 hours after reanimation, the animals were submitted to the rotarod test.

| SMILES | neuronal apoptosis (caspase-3 activity) after NMDA [1] | mutated synuclein and number of aggregates [2] | motor discoordination (rotarod) induced by 3-nitropropionic acid (C57BL6/J male mice [3]) | number of line crossings (open field), 3-nitropropionic acid model (C57BL6/J male mice [4]) | time spent in central square of the arena (open field), 3-nitropropionic acid model (C57BL6/J male mice [4]) | recovery of motor coordination (rotarod) of mice with stroke (C57BL6/J male mice [5]) |
| --- | --- | --- | --- | --- | --- | --- |
| C=CC1(C)C=C(C)C2C3C(Oc4ccc(cc4)CC4C(=O)NC(O)C4C(=O)C31)C1C(C)CC(C)CC21C (stereo not drawn) [CL0670] | effective in protecting neuron cells against apoptosis | significantly decreased | prevent partially | increased | increased | ~17% |
| C=CC1(C)C=C(C)C2C3C(Oc4ccc(cc4)CC4(O)NC(=O)C5(OC45)C(=O)C31)C1C(C)CC(C)CC21C (stereo not drawn) [Compound I] | effective in protecting neuron cells against apoptosis | significantly decreased | prevent partially | increased | increased | ~17% |

Reference: patent US20220177484A1, “MACROCYCLES WITH ANTIOXIDANT AND NEUROPROTECTIVE ACTIVITIES” (INSTITUTO BIOMAR, S.A, priority 2019, published 2022)
